What was measured:
recombinant human HDAC6 = biological target: T1, recombinant human HDAC6 (Homo sapiens, UniProt Q9UBN7); test: Enzymatic screening on recombinant human HDAC6; assay type: biochemical; details: Table 2; read-out: HDAC6 IC50
T1 sequence (Q9UBN7 1-1215): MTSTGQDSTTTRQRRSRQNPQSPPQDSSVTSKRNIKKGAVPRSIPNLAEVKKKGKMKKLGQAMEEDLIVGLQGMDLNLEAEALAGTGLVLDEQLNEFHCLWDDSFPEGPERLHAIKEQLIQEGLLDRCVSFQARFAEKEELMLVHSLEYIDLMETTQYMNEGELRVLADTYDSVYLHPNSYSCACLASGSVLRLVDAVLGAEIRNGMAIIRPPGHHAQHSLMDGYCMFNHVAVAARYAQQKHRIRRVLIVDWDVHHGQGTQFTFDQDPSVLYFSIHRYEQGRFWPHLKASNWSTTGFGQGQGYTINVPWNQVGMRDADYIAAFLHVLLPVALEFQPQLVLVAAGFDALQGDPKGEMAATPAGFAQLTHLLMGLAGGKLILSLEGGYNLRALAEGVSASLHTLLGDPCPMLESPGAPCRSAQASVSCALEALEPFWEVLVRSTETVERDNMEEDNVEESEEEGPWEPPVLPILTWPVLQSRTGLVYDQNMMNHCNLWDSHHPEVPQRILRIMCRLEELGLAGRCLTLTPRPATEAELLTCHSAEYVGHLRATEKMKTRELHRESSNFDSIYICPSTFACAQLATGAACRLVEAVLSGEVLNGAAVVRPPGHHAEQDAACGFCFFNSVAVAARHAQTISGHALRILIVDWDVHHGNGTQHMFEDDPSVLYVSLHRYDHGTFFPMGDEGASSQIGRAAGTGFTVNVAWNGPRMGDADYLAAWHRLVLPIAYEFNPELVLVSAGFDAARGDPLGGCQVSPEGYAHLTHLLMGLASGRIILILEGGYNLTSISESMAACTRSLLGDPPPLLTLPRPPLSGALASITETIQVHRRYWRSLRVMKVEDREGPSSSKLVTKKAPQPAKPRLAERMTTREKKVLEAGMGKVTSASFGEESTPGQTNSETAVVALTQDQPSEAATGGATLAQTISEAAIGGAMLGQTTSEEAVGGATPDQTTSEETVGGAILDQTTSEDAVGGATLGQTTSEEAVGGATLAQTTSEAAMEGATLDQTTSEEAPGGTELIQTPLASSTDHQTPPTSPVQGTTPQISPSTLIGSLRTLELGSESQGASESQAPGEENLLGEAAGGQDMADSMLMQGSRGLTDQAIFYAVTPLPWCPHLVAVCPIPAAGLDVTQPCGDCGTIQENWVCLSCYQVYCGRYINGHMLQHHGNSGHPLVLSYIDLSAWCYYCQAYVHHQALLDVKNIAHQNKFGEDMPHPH
Outline: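 Compound + recombinant human HDAC, 30 °C, incubation time isoform-specific. Substrate (FdL, FdL-Green or Tfal) added as 2× stock in 25 mM Tris-HCl pH 8/130 mM NaCl/0.05% Tween-20/10% glycerol; reaction at 30 °C.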

[1] = Stability to Phase I metabolism in human S9 liver fraction; assay type: in vitro ADME
Experimental: Test compounds were incubated in rat and human liver S9 fraction at 37° C. up to 90 minutes in order to evaluate their stability to Phase I metabolism by hepatic enzymes. […] The reaction was stopped placing samples on ice bath and adding acidified acetonitrile. After centrifugation (10 minutes at 14000 rpm) an aliquot of the supernatant was diluted water, filtered with 0.45 μm regenerated cellulose syringe filters and injected in HPLC-UV or in LC-MS/MS. The percentages of the amount remaining at the various incubation times with respect to the initial amount were calculated. The intrinsic clearance was also calculated.

[2] = test system: B 697 promyelocytic cell line; test: Cytotoxicity on 697 cell line (CellTiter 96); assay type: cell-based; details: 72 hours incubation, read-out: 697 TOXICITY
Outline: (§1)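 Cells seeded (2×10^4/well for 697, 5×10^5/well for PBMCs); compounds added after 24 h at 1–10000 nM (697) or 1.5–10000 nM (PBMCs) and incubated 72 h. Viability read by CellTiter 96 Aqueous One tetrazolium assay of mitochondrial function.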

Stability in rat plasma = assay type: in vitro ADME; details: after 4 hours, 37° C.
Outline: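 Compounds incubated at 37° C in rat or human plasma at 50 μM (UV/HPLC) or 1 or 2 μM (LC-MS/MS) for 0–4 h. Reaction stopped with acidified acetonitrile on ice; percent remaining versus initial amount and plasma half-life calculated.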

[3] = Stability to Phase I metabolism in rat S9 liver fraction; assay type: in vitro ADME; details: after 90 min, 37° C.
Outline: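 Compounds were incubated with rat or human liver S9 fraction at 37 °C for up to 90 min. Reactions were quenched on ice with acidified acetonitrile and analysed by HPLC-UV or LC-MS/MS. Percent remaining versus time zero and intrinsic clearance were calculated.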

[4] = Stability in human plasma; assay type: in vitro ADME; details: after 4 hours, 37° C.
Experimental: In order to evaluate the stability to circulating enzymes, test compounds were incubated in human and rat plasma at 37° C. in a thermostated oscillating bath. Each test compound was incubated at μM (50 μM when the samples were analysed by UV/HPLC, 1 or 2 μM when the samples were analysed by LC-MS/MS) concentration for 0, 15, 30 min and 1, 2 and 4 hours. The reaction was stopped placing tubes on ice bath and adding acidified acetonitrile. After centrifugation for 10 minutes at 14000 rpm, an aliquot of the supernatant was diluted with water, filtered with 0.45 μm syringe filters and injected in HPLC-UV or in LC-MS/MS. The percentages of amount remaining at the various times of incubation with respect to initial amount were calculated. The half-life in plasma was also calculated.

[5] = test system: peripheral blood mononuclear cells (PBMCs); test: Cytotoxicity on PBMCs (CellTiter 96); assay type: cell-based; details: PBMC, 72 h; read-out: PBMC TOXICITY (72 h)
Outline: as §1

IC50 (recombinant human HDAC6)	residual percentage in human S9 fraction ([1]; human, 90 min, pH 7.4)	residual percentage in rat plasma (Stability in rat plasma)	residual percentage in rat S9 fraction [3]	residual percentage in human plasma [4]	SMILES	IC50 [2]	IC50 [5]	residual percentage in human S9 fraction ([1]; human liver S9 fraction, after 90 min, 37° C.)
5 nM	95%	89%	71%	80%	CN1CCN(Cc2ccc(-c3nnc(Sc4c(F)cc(C(=O)NO)cc4F)n3C)o2)CC1 [comp. 205, 3,5-difluoro-4-[[4-methyl-5-[5-[(4-methylpiperazin-1-yl)methyl]-2-furyl]-1,2,4-triazol-3-yl]sulfanyl]benzenecarbohydroxamic acid]	15400 nM	–	–
8 nM	87%	38%	88%	77%	Cn1c(Sc2c(F)cc(C(=O)NO)cc2F)nnc1-c1ccccn1 [comp. 14, 3,5-difluoro-N-hydroxy-4-((4-methyl-5-(pyridin-2-yl)-4H-1,2,4-triazol-3-yl)thio)benzamide]	3940 nM	> 10000 nM	–
7 nM	84%	89%	72%	79%	Cn1c(Sc2c(F)cc(C(=O)NO)cc2F)nnc1-c1ccc(CN2CCOCC2)o1 [comp. 204, 3,5-difluoro-4-[[4-methyl-5-[5-(morpholinomethyl)-2-furyl]-1,2,4-triazol-3-yl]sulfanyl]benzenecarbohydroxamic acid]	15400 nM	–	–
6 nM	75%	81%	60%	83%	Cn1c(Sc2c(F)cc(C(=O)NO)cc2F)nnc1-c1ccc(CN2CCCCC2)o1 [comp. 212, 3,5-difluoro-4-[[4-methyl-5-[5-(1-piperidylmethyl)-2-furyl]-1,2,4-triazol-3-yl]sulfanyl]benzenecarbohydroxamic acid]	15400 nM	–	–
13 nM	63%	80%	58%	97%	CCN(CC)Cc1cc(-c2nnc(Sc3c(F)cc(C(=O)NO)cc3F)n2C)c(C)o1 [comp. 213, 4-[[5-[5-(diethylaminomethyl)-2-methyl-3-furyl]-4-methyl-1,2,4-triazol-3-yl]sulfanyl]-3,5-difluoro-benzenecarbohydroxamic acid]	15400 nM	–	–
–	84%	89%	62%	91%	O=C(NO)c1ccc(Cc2nnc(-c3ccccc3)[nH]2)cc1 [comp. 216, 4-[(5-phenyl-4H-1,2,4-triazol-3-yl)methyl]benzenecarbohydroxamic acid]	288 nM	–	–
3 nM	73%	60%	9%	92%	O=C(NO)c1ccc(Cn2nnc(-c3ccccc3)n2)cc1 [comp. 214, 4-[(5-phenyltetrazol-2-yl)methyl]benzenecarbohydroxamic acid]	409 nM	–	–
–	82%	57%	65%	90%	O=C(NO)c1ccc(Cn2nnnc2-c2ccccc2)cc1 [comp. 215, 4-[(5-phenyltetrazol-1-yl)methyl]benzenecarbohydroxamic acid]	340 nM	–	–
4 nM	81%	81%	81%	87%	CCc1oc(-c2nnc(Sc3c(F)cc(C(=O)NO)cc3F)n2C)cc1CN1CCCC1 [comp. 208, 4-[[5-[5-ethyl-4-(pyrrolidin-1-ylmethyl)-2-furyl]-4-methyl-1,2,4-triazol-3-yl]sulfanyl]-3,5-difluoro-benzenecarbohydroxamic acid]	15400 nM	–	–
7 nM	97%	88%	50%	92%	CN(C)Cc1ccc(-c2nnc(Sc3c(F)cc(C(=O)NO)cc3F)n2C)o1 [comp. 206, 4-[[5-[5-[(dimethylamino)methyl]-2-furyl]-4-methyl-1,2,4-triazol-3-yl]sulfanyl]-3,5-difluoro-benzenecarbohydroxamic acid]	–	–	–
11 nM	100%	69%	84%	77%	CN1CCN(Cc2ccc(-c3nnc(Sc4ccc(C(=O)NO)cc4)n3C)o2)CC1 [comp. 209, 4-[[4-methyl-5-[5-[(4-methylpiperazin-1-yl)methyl]-2-furyl]-1,2,4-triazol-3-yl]sulfanyl]benzenecarbohydroxamic acid]	15400 nM	–	–
10 nM	86%	82%	62%	96%	O=C(NO)c1cc(F)c(Cc2nnc(-c3cncc(N4CCOCC4)c3)s2)c(F)c1 [compound 197, 3,5-difluoro-4-[[5-(5-morpholino-3-pyridyl)-1,3,4-thiadiazol-2-yl]methyl]benzenecarbohydroxamic acid]	–	–	–
22 nM	42%	92%	35%	93%	O=C(NO)c1cc(F)c(Sc2nnc(-c3cccnc3)s2)c(F)c1 [comp. 191, 3,5-difluoro-N-hydroxy-4-((5-(pyridin-3-yl)-1,3,4-thiadiazol-2-yl)thio)benzamide]	–	–	–

SMILES	IC50 (recombinant human HDAC6)	residual percentage in human S9 fraction ([1]; human, 90 min, pH 7.4)	residual percentage in rat plasma (Stability in rat plasma)	residual percentage in rat S9 fraction [3]	residual percentage in human plasma [4]	IC50 [2]	IC50 [5]	residual percentage in human S9 fraction ([1]; human liver S9 fraction, after 90 min, 37° C.)
O=C(NO)c1cc(F)c(Cn2nnc(-c3ncccn3)n2)c(F)c1 [comp. 7]	–	–	77%	96%	93%	4190 nM	10000 nM	89%

Reference: patent US11351178B2, “Selective HDAC6 inhibitors” (ITALFARMACO S.P.A., priority 2017, dated 2022)
